Results reported in paper PMC3702004, “Comparison of Intake and Systemic Relative Effect Potencies of Dioxin-like Compounds in Female Mice after a Single Oral Dose” (Environmental Health Perspectives, 2013).

Assays:
[1] = Compound analysis: liver, adipose and plasma concentrations 3 days after a single oral dose; format: in vivo, female C57BL/6 mice; details: for Adipose % dose / g tissue / liver:adipose ratio (hepatic sequestration criterion 0.3) / Liver % dose / g tissue / Plasma % dose / g tissue / tissue uptake: 3 days after single oral dose; for liver:adipose ratio (hepatic sequestration criterion 0.3): Table 1 doses; for Liver:adipose ratio: based on ng/g tissue, day 3; for tissue uptake: female, C57BL/6, mouse, in vivo
Description: (§1) Animals. Eight-week-old female C57BL/6 mice (Harlan laboratories, Venray, the Netherlands) were randomly assigned to treatment groups (six animals per group) and allowed to acclimate for 1.5 weeks. The animals were housed in groups in standard cages and conditions (23 ± 2°C, 50–60% relative humidity, 12-hr dark/light cycle) with free access to food and water. Mice received a single dose of test compound by oral gavage at a dosing volume of 10 mL/kg body weight (BW). Mice treated with corn oil vehicle (10 mL/kg BW) served as controls. For each congener, five different doses were administered, ranging from 0.5–100 μg/kg BW (TCDD) to 5,000–500,000 µg/kg BW (PCB-153). Detailed information on doses is provided in Supplemental Material, Table S1 (http://dx.doi.org/10.1289/ehp.1206336). On day 3 after dosing, animals were euthanized by CO2/O2 asphyxiation, and blood was immediately collected from the abdominal aorta. The liver, thymus, spleen, and adipose tissue were removed, weighed (liver, thymus, and spleen), snap frozen, and stored at –80°C. All animal treatments were performed with permission of the Animal Ethical Committee (DEC Utrecht) and performed according to the [Law on Animal Experiments (1977)]. Animals were treated humanely and with regard for alleviation of suffering.
Compound analysis. Adipose and liver tissues samples were homogenized in Na2SO4, followed by extraction and clean-up in one step, and then eluted with 200 mL 1:1 hexane:dichloromethane on an open column packed with 40% wt/wt H2SO4-impregnated silica and KOH-silica. Blood plasma samples were extracted on an open column using Chem-Elut (Agilent Technologies, Santa Clara, CA, USA) and then NaCl eluted with 75 mL 3:2 hexane:2-propanol. Clean-up was performed using a miniaturized silica column (as described above), and samples were eluted using 30 mL hexane. Because the samples typically contained high levels of the analytes, only a small fraction was evaporated and analyzed. Prior to evaporation, we spiked a fraction of the samples with ^13C-labeled standards. We checked potential loss of analytes during extraction and clean-up by reextracting the samples using the identical protocol used for the samples. […] Tetradecane was added prior to evaporation. Sample analysis followed the U.S. Environmental Protection Agency Method 1613 ([U.S. Environmental Protection Agency 1994]) using single ion monitoring mode on an Agilent 6809N gas chromatograph (Agilent Technologies) coupled with a Micromass Ultima Autospec Ultra high-resolution mass spectrometer (HRMS; Waters Corp., Milford, MA, USA). Compounds were separated on a 60 m × 0.25 mm DB5-MS column ([…]; J&W Scientific, Folsom, CA, USA). The HRMS was operated with electron impact ionization with electron energy of 35 eV and an ion source temperature of 250°C. To reduce the number of analyses, samples were pooled before clean-up. […] This method was used because full congener–specific separation could be achieved on the high-resolution GC–HRMS. For lipid determination, samples were evaporated to dryness after the extraction step, and the amount of lipids was determined gravimetrically. Concentrations were calculated based on lipid weight and wet weight. The analysis of samples for the PCB-118 5,000 μg/kg BW dose failed during the procedure; thus analysis for this group could not be completed.
(§2) Plasma and PBL isolation. Blood from two mice was pooled (total volume of approximately 1.4 mL); plasma and PBLs were then isolated using Ficoll Paque gradient (GE Healthcare Europe, Diegem, Belgium). Plasma samples were stored at –80°C until compound analysis. Isolated lymphocytes were lysed with RLT buffer (QIAGEN, Venlo, the Netherlands) as described in the QIAGEN RNAeasy kit protocol and stored at –80°C until use.

[2] = tested on: Cyp1b1 mRNA in PBLs; assay: Cyp1b1 gene expression in peripheral blood lymphocytes; format: in vivo, female C57BL/6 mice; details: for BMR20TCDD PBLs Cyp1b1 mRNA: 3 days after single oral dose; for REP PBLs Cyp1b1 mRNA: relative to TCDD; for Effect on Cyp1b1 mRNA in PBLs: single oral dose
Description: as §1, §2
RNA isolation and quantitative real-time polymerase chain reaction (PCR). Total RNA was isolated from liver and PBLs using a QIAGEN RNeasy kit (QIAGEN). Purity and concentration of the isolated RNA was determined by measuring the absorbance ratio at 260/280 nm and 230/260 nm with a Nanodrop 2000 spectrophotometer (Thermo Scientific, Asheville, NC, USA). RNA was reverse transcribed to complementary DNA (cDNA) using the iScript cDNA synthesis Kit (Bio-Rad, Veenendaal, the Netherlands). Quantitative real-time PCR analyses were performed using the iQ Real-Time PCR Detection System with SYBR green (Bio-Rad). Amplification reactions were set up with […] containing 12.5 μL iQ SYBR Green Supermix (Bio-rad), 0.5 μL distilled H2O, 1 μL (10 μM) forward primer, 1 μL (10 μM) reverse primer, and 10 μL first strand cDNA (10X diluted). Primer sequences were as follows: Cyp1a1: forward-5´-GGTTAACCATGACCGGGAACT-3´ and reverse-5´-TGCCCAAACCAAAGAGAGTGA-3´ ([Schulz et al. 2012]); Cyp1a2: forward-5´-ACATTCCCAAGGAGCGCTGTATCT-3´ and reverse-5´-GTCGATGGCCGAGTTGTTATTGGT-3´ ([Flaveny et al. 2010]); Cyp1b1: forward-5´-GTGGCTGCTCATCCTCTTTACC-3´ and reverse-5´-CCCACAACCTGGTCCAACTC-3´ ([Berge et al. 2004]); β-actin: forward-5´-ATGCTCCCCGGGCTGTAT-3´ and reverse-5´-CATAGGAGTCCTTCTGACCCATTC-3´ ([Schulz et al. 2012]). All primers were run through the National Center for Biotechnology Information Primer-BLAST database (http://www.ncbi.nlm.nih.gov/tools/primer-blast/) to confirm specificity and validate for optimal annealing temperature (60°C for all primers) and efficiency. The efficiency of all primer pairs was 98–102% (tested at 60°C). The following program was used for denaturation and amplification of cDNA: 3 min at 95°C, followed by 40 cycles of 15 sec at 95°C and 45 sec at 60°C. Gene expression for each sample was expressed as threshold cycle (Ct), normalized to the reference gene β-actin (ΔCt). We calculated fold induction relative to the control group.
Data analysis. We obtained concentration–response curves using a sigmoidal dose–response nonlinear regression curve fit with variable slope (GraphPad Prism 6.01; GraphPad Software Inc., San Diego, CA, USA): […]

SMILES | Adipose % dose / g tissue ([1]; oral dose 5 µg/kg bw) [% dose / g tissue] | Adipose % dose / g tissue ([1]; oral dose 25 µg/kg bw) [% dose / g tissue] | Adipose % dose / g tissue ([1]; oral dose 100 µg/kg bw) [% dose / g tissue] | Effect on Cyp1b1 mRNA in PBLs ([2]; day 3) | liver:adipose ratio (hepatic sequestration criterion 0.3) [1] | Liver:adipose ratio ([1]; dose 15,000 μg/kg BW) | Liver:adipose ratio ([1]; dose 50,000 μg/kg BW) | Adipose % dose / g tissue ([1]; oral dose 15000 µg/kg bw) [% dose / g tissue] | Liver % dose / g tissue ([1]; oral dose 15000 µg/kg bw) [% dose / g tissue] | Plasma % dose / g tissue ([1]; oral dose 15000 µg/kg bw) [% dose / g tissue] | Adipose % dose / g tissue ([1]; oral dose 50000 µg/kg bw) [% dose / g tissue] | Liver % dose / g tissue ([1]; oral dose 50000 µg/kg bw) [% dose / g tissue] | Plasma % dose / g tissue ([1]; oral dose 50000 µg/kg bw) [% dose / g tissue] | Liver % dose / g tissue ([1]; oral dose 150000 µg/kg bw) [% dose / g tissue] | Plasma % dose / g tissue ([1]; oral dose 150000 µg/kg bw) [% dose / g tissue] | Plasma % dose / g tissue ([1]; oral dose 500000 µg/kg bw) [% dose / g tissue] | Liver:adipose ratio ([1]; dose 5,000 μg/kg BW) | tissue uptake ([1]; oral dose 5000 µg/kg bw) [%ID/g] | Adipose % dose / g tissue ([1]; oral dose 5000 µg/kg bw) [% dose / g tissue] | Liver % dose / g tissue ([1]; oral dose 5000 µg/kg bw) [% dose / g tissue] | other results
Clc1cc2oc3c(Cl)c(Cl)c(Cl)cc3c2cc1Cl [Congener 4-PeCDF, 2,3,4,7,8-pentachlorodibenzofuran] | 3.4 | 3.0 | 3.5 | dose-dependently induced | – | – | – | – | – | – | – | – | – | – | – | – | – | – | – | – | BMR20TCDD PBLs Cyp1b1 mRNA ([2]; dose metric Adm dose): 514 µg/kg BW; BMR20TCDD PBLs Cyp1b1 mRNA ([2]; dose metric Syst plasma): 212 ng/g lipid; REP PBLs Cyp1b1 mRNA ([2]; dose metric Adm dose (µg/kg BW)): 0.04; REP PBLs Cyp1b1 mRNA ([2]; dose metric Syst plasma (ng/g lipid)): 0.3
Clc1ccc(-c2cc(Cl)c(Cl)cc2Cl)cc1Cl [PCB-118, 2,3´,4,4´,5-pentachlorobiphenyl] | – | – | – | did not induce | < 0.3 | 0.08±0.01 | 0.07±0.02 | 32 | 2.6 | 0.054 | 33 | 2.2 | 0.067 | 2.2 | 0.062 | 0.05 | – | – | – | – | –
Clc1ccc(-c2cc(Cl)c(Cl)c(Cl)c2)cc1Cl [PCB-126, 3,3´,4,4´,5-pentachlorobiphenyl] | 12 | 11 | 5.5 | – | > 0.3 | – | – | – | – | – | – | – | – | – | – | – | – | – | – | – | Liver:adipose ratio ([1]; dose 5 μg/kg BW): 3.2±0.3; Liver:adipose ratio ([1]; dose 25 μg/kg BW): 5.9±0.9; Liver:adipose ratio ([1]; dose 100 μg/kg BW): 9.1±0.9; Liver % dose / g tissue ([1]; oral dose 5 µg/kg bw): 38 % dose / g tissue; Plasma % dose / g tissue ([1]; oral dose 5 µg/kg bw): 0.035 % dose / g tissue; Liver % dose / g tissue ([1]; oral dose 25 µg/kg bw): 65 % dose / g tissue; Plasma % dose / g tissue ([1]; oral dose 25 µg/kg bw): 0.018 % dose / g tissue; Liver % dose / g tissue ([1]; oral dose 100 µg/kg bw): 51 % dose / g tissue; Plasma % dose / g tissue ([1]; oral dose 100 µg/kg bw): 0.012 % dose / g tissue; Plasma % dose / g tissue ([1]; oral dose 250 µg/kg bw): 0.013 % dose / g tissue; Plasma % dose / g tissue ([1]; oral dose 1000 µg/kg bw): 0.014 % dose / g tissue; Induction of Cyp1b1 mRNA in PBLs, of the maximal induction of TCDD ([2]; highest dose tested, day 3): 3.5%
Clc1cc(Cl)c(-c2cc(Cl)c(Cl)cc2Cl)cc1Cl [PCB-153, 2,2´,4,4´,5,5´-hexachlorobiphenyl] | – | – | – | did not induce | < 0.3 | 0.11±0.02 | 0.08±0.03 | 25 | 2.5 | 0.052 | 25 | 2.0 | 0.060 | – | 0.050 | 0.042 | 0.08±0.02 | 0.075 | 23 | 1.8 | –
Clc1ccc(-c2cc(Cl)c(Cl)c(Cl)c2Cl)cc1Cl [PCB-156, 2,3,3´,4,4´,5-hexachlorobiphenyl] | – | – | – | did not induce | < 0.3 | 0.11±0.03 | 0.12±0.02 | 22 | 2.3 | 0.061 | 34 | 4.1 | 0.066 | 3.0 | 0.045 | 0.037 | 0.09±0.02 | 0.079 | 25 | 2.2 | –
